Measurements reported in ChEMBL document CHEMBL6078684, “Discovery of a Novel Non-invasive AR PROTAC Degrader for the Topical Treatment of Androgenetic Alopecia” (J Med Chem, 2024).
Active and inactive are the calls of the source. The calls are words filed in the database; no cut-off is given here.

How the values were obtained:
[1] = target: T1, Protein cereblon/Androgen receptor (Homo sapiens, UniProt P10275+Q96SW2); assay: PROTAC activity at CRBN/AR in human dermal papilla cell assessed as induction of AR degradation measured after 24 to 72 hrs by Western blot analysis; assay type: cell-based
Target sequence in this assay (P10275 whole entry): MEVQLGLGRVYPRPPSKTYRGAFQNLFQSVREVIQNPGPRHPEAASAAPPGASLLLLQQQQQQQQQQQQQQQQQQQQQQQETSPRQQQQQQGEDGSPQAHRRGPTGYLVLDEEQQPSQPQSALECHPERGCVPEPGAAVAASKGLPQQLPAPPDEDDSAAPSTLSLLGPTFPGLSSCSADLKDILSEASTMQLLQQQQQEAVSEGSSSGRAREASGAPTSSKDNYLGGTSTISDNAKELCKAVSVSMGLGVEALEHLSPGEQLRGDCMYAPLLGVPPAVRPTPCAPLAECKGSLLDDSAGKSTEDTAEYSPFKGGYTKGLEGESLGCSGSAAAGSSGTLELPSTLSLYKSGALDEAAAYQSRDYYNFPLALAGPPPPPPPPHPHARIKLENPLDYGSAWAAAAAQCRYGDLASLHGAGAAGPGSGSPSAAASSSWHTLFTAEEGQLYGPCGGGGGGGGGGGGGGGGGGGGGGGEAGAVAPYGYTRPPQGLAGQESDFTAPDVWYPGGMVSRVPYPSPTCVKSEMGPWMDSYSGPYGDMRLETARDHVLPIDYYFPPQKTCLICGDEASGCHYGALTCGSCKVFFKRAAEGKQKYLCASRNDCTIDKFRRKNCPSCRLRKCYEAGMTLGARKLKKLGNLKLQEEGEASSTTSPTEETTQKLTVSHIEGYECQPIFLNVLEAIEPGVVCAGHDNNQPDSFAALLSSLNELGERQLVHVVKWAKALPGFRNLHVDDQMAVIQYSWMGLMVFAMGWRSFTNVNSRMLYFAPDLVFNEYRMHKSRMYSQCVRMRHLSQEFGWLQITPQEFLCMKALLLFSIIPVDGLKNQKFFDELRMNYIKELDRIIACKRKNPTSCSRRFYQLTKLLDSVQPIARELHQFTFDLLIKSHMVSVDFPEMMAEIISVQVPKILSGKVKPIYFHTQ
Target sequence in this assay (Q96SW2 whole entry): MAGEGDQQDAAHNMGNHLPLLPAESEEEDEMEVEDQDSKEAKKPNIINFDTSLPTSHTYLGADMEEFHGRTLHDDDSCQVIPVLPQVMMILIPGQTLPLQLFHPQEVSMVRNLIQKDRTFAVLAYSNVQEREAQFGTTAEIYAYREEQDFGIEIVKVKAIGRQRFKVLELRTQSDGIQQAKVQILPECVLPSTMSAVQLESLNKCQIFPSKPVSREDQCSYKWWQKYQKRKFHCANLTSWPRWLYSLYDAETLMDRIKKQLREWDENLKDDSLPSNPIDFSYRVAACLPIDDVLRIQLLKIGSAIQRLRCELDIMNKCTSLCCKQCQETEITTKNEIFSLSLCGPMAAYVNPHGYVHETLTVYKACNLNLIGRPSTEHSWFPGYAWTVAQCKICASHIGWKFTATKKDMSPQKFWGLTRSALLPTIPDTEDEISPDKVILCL

[2] = target: T1, Protein cereblon/Androgen receptor; assay: PROTAC activity at CRBN/AR in human dermal papilla cell assessed as induction of AR degradation at 500 nM measured after 24 hrs by Western blot analysis; assay type: cell-based
Target sequence in this assay (P10275 whole entry, looked up): as the sequence (P10275 whole entry) above
Target sequence in this assay (Q96SW2 whole entry, looked up): as the sequence (Q96SW2 whole entry) above

[3] = target: T1, Protein cereblon/Androgen receptor; assay: PROTAC activity at CRBN/AR in human dermal papilla cells assessed as induction of AR degradation at 500 nM in presence of warhead of compound by Western blot analysis; assay type: cell-based; conditions: Human dermal papilla cell
Target sequence in this assay (P10275 whole entry, looked up): as the sequence (P10275 whole entry) above
Target sequence in this assay (Q96SW2 whole entry, looked up): as the sequence (Q96SW2 whole entry) above

[4] = target: T1, Protein cereblon/Androgen receptor; assay: PROTAC activity at CRBN/AR in human dermal papilla cells assessed as decrease in AR protein level at 1 uM preincubated with testosterone for 24 hrs followed by compound addition and measured after 48 hrs by Western blot analysis; assay type: cell-based; conditions: Human dermal papilla cell
Target sequence in this assay (P10275 whole entry, looked up): as the sequence (P10275 whole entry) above
Target sequence in this assay (Q96SW2 whole entry, looked up): as the sequence (Q96SW2 whole entry) above

[5] = target: T1, Protein cereblon/Androgen receptor; assay: PROTAC activity at CRBN/AR in human dermal papilla cells assessed as decrease in TGF-beta1 expression level at 250 to 1000 nM preincubated with testosterone for 24 hrs followed by compound addition and measured after 48 hrs by Western blot analysis; assay type: cell-based; conditions: Human dermal papilla cell, dose 250-1000 nM
Target sequence in this assay (P10275 whole entry, looked up): as the sequence (P10275 whole entry) above
Target sequence in this assay (Q96SW2 whole entry, looked up): as the sequence (Q96SW2 whole entry) above

[6] = target: T1, Protein cereblon/Androgen receptor; assay: PROTAC activity at CRBN/AR in human dermal papilla cells assessed as inhibition of TGF-beta1 release by measuring TGF-beta1 concentration at 500 nM preincubated with testosterone for 24 hrs followed by compound addition and measured after 48 hrs by ELISA; assay type: cell-based; conditions: Human dermal papilla cell
Target sequence in this assay (P10275 whole entry, looked up): as the sequence (P10275 whole entry) above
Target sequence in this assay (Q96SW2 whole entry, looked up): as the sequence (Q96SW2 whole entry) above

[7] = target: T1, Protein cereblon/Androgen receptor; assay: PROTAC activity at CRBN/AR in human dermal papilla cells assessed as inhibition of TGF-beta1 release by measuring fold change in TGF-beta1 concentration at 1 uM preincubated with testosterone for 24 hrs followed by compound addition and measured after 48 hrs by ELISA relative to minoxidil; assay type: cell-based; conditions: Human dermal papilla cell
Target sequence in this assay (P10275 whole entry, looked up): as the sequence (P10275 whole entry) above
Target sequence in this assay (Q96SW2 whole entry, looked up): as the sequence (Q96SW2 whole entry) above

[8] = Ratio of drug concentration in male ICR mouse skin to heart at 4 mg/ml, TOP measured after 0.25 hrs by LC-MS/MS analysis; assay type: ADME, tissue-based; conditions: in vivo, topical_or_ocular
[9] = Ratio of drug concentration in male ICR mouse skin to heart at 4 mg/ml, TOP measured after 0.5 hrs by LC-MS/MS analysis; assay type: ADME, tissue-based; conditions: in vivo, topical_or_ocular
[10] = Cmax in male ICR mouse plasma at 4 mg/ml, TOP measured after 12 hrs by LC-MS/MS analysis; assay type: ADME, cell-free; conditions: topical or ocular
[11] = AUC (0 to t) in male ICR mouse plasma at 4 mg/ml, TOP measured after 12 hrs by LC-MS/MS analysis; assay type: ADME, cell-free; conditions: topical or ocular
[12] = Drug uptake in male ICR mouse lung at 4 mg/ml, TOP measured after 12 hrs by LC-MS/MS analysis; assay type: ADME, tissue-based; conditions: in vivo, topical_or_ocular
[13] = Ratio of drug concentration in male ICR mouse skin to plasma at 4 mg/ml, TOP measured after 1 hrs by LC-MS/MS analysis; assay type: ADME, cell-free; conditions: topical or ocular
[14] = Ratio of drug concentration in male ICR mouse skin to plasma at 4 mg/ml, TOP measured after 8 hrs by LC-MS/MS analysis; assay type: ADME, cell-free; conditions: other tissue, topical_or_ocular
[15] = Ratio of drug concentration in male ICR mouse skin to plasma at 4 mg/ml, TOP measured after 12 hrs by LC-MS/MS analysis; assay type: ADME, cell-free; conditions: other tissue, topical_or_ocular
[16] = Ratio of drug concentration in male ICR mouse skin to liver at 4 mg/ml, TOP measured after 2 hrs by LC-MS/MS analysis; assay type: ADME, tissue-based; conditions: in vivo, topical_or_ocular
[17] = Ratio of drug concentration in male ICR mouse skin to liver at 4 mg/ml, TOP measured after 8 hrs by LC-MS/MS analysis; assay type: ADME, tissue-based; conditions: in vivo, topical_or_ocular
[18] = Ratio of drug concentration in male ICR mouse skin to liver at 4 mg/ml, TOP measured after 12 hrs by LC-MS/MS analysis; assay type: ADME, tissue-based; conditions: in vivo, topical_or_ocular
[19] = Ratio of drug concentration in male ICR mouse skin to spleen at 4 mg/ml, TOP measured after 2 hrs by LC-MS/MS analysis; assay type: ADME, tissue-based; conditions: in vivo, topical_or_ocular
[20] = Ratio of drug concentration in male ICR mouse skin to spleen at 4 mg/ml, TOP measured after 4 hrs by LC-MS/MS analysis; assay type: ADME, tissue-based; conditions: in vivo, topical_or_ocular
[21] = Ratio of drug concentration in male ICR mouse skin to lungs at 4 mg/ml, TOP measured after 0.25 hrs by LC-MS/MS analysis; assay type: ADME, tissue-based, Skin/Lung; conditions: in vivo, topical_or_ocular
[22] = Ratio of drug concentration in male ICR mouse skin to lungs at 4 mg/ml, TOP measured after 1 hrs by LC-MS/MS analysis; assay type: ADME, tissue-based, Skin/Lung; conditions: in vivo, topical_or_ocular
[23] = Ratio of drug concentration in male ICR mouse skin to lungs at 4 mg/ml, TOP measured after 8 hrs by LC-MS/MS analysis; assay type: ADME, tissue-based, Skin/Lung; conditions: in vivo, topical_or_ocular
[24] = Ratio of drug concentration in male ICR mouse skin to lungs at 4 mg/ml, TOP measured after 12 hrs by LC-MS/MS analysis; assay type: ADME, tissue-based, Skin/Lung; conditions: in vivo, topical_or_ocular
[25] = Ratio of drug concentration in male ICR mouse skin to kidney at 4 mg/ml, TOP measured after 0.25 hrs by LC-MS/MS analysis; assay type: ADME, tissue-based; conditions: in vivo, topical_or_ocular
[26] = Ratio of drug concentration in male ICR mouse skin to kidney at 4 mg/ml, TOP measured after 12 hrs by LC-MS/MS analysis; assay type: ADME, tissue-based; conditions: in vivo, topical_or_ocular
Mus musculus [27] = assay: Hair regeneration efficacy in testosterone induced male C57BL/6 mouse androgenetic alopecia model at 0.1 to 0.4 %, TOP administered once daily for 14 days and measured after 21 days with co-administration of 0.2% testosterone for 28 days by photographic analysis; assay type: functional, organism-based; conditions: dose 0.1-0.4 %, time 14.0 day
Mus musculus [28] = assay: Hair regeneration efficacy in testosterone induced male C57BL/6 mouse androgenetic alopecia model at 0.4 %, TOP administered once daily for 14 days and measured after 21 days with co-administration of 0.2% testosterone for 28 days relative to minoxidil by photographic analysis; assay type: functional; conditions: time 14 day
Mus musculus [29] = assay: Hair regeneration efficacy in testosterone induced male C57BL/6 mouse androgenetic alopecia model assessed as earlier pigmentation at 0.1 to 0.4 %, TOP administered once daily for 14 days and measured after 21 days with co-administration of 0.2% testosterone for 28 days by photographic analysis; assay type: functional, organism-based; conditions: dose 0.1-0.4 %, time 14.0 day
Mus musculus [30] = assay: Hair regeneration efficacy in testosterone induced male C57BL/6 mouse androgenetic alopecia model assessed as increase in hair diameter at 0.1 %, TOP administered once daily for 14 days with co-administration of 0.2% testosterone and measured after 28 days by SEM analysis; assay type: functional, organism-based; conditions: time 28.0 day
Mus musculus [31] = assay: Hair regeneration efficacy in testosterone induced male C57BL/6 mouse androgenetic alopecia model assessed as increase in hair density at 0.4 %, TOP administered once daily for 14 days with co-administration of 0.2% testosterone and measured after 28 days by trichoscope photographic analysis; assay type: functional, organism-based; conditions: time 28.0 day
[32] = target: Protein cereblon/Androgen receptor (Mus musculus) (UniProt P19091+Q8C7D2); assay: In vivo PROTAC activity at CRBN/AR in testosterone induced male C57BL/6 mouse androgenetic alopecia model assessed as increase in beta-catenin expression level in skin at 0.4 % TOP administered once daily for 14 days with co-administration of 0.2% testosterone for 28 days by DAPI staining based immunofluorescence analysis; assay type: functional, organism-based; conditions: time 14.0 day
Sequence of Protein cereblon/Androgen receptor (Mus musculus) (P19091 whole entry, looked up): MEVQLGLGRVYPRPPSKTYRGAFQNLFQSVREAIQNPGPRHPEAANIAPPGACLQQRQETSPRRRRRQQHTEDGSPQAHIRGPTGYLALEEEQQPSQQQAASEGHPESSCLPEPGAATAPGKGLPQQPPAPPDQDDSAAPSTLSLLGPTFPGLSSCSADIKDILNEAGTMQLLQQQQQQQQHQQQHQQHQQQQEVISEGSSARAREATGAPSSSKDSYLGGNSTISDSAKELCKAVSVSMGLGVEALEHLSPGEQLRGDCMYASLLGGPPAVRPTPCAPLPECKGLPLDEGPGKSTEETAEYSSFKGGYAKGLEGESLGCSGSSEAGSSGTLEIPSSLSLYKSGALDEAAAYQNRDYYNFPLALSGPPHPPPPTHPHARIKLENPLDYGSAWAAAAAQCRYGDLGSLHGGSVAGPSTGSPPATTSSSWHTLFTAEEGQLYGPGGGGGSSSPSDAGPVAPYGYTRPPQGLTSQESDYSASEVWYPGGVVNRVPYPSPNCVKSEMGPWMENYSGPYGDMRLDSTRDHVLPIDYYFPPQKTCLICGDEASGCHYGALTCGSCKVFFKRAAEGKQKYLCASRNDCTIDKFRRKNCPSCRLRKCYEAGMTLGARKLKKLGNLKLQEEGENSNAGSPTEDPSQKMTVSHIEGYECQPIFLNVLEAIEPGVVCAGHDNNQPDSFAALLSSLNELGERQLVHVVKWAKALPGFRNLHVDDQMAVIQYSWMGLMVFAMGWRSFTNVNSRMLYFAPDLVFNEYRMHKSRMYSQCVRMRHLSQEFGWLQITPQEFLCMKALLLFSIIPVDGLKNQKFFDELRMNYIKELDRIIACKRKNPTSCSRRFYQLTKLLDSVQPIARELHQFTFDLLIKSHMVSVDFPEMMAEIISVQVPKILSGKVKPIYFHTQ
Sequence of Protein cereblon/Androgen receptor (Mus musculus) (Q8C7D2 whole entry, looked up): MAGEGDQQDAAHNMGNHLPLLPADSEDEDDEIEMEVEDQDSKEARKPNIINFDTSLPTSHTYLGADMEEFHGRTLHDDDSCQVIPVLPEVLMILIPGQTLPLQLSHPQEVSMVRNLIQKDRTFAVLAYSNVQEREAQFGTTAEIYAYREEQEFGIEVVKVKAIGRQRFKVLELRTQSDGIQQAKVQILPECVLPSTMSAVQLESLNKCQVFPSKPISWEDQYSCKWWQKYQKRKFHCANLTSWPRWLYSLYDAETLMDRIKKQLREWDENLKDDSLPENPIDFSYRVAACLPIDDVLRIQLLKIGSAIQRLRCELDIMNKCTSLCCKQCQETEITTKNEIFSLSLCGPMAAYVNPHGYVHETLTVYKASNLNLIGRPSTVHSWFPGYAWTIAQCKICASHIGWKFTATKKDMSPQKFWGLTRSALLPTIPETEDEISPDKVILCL

Mus musculus [33] = assay: Hair regeneration efficacy in testosterone induced male C57BL/6 mouse androgenetic alopecia model assessed as increase in Ki67 expression in skin at 0.4 % TOP administered once daily for 14 days with co-administration of 0.2% testosterone for 28 days by DAPI staining based immunofluorescence analysis; assay type: functional, organism-based; conditions: time 14.0 day

SMILES: N#Cc1ccc(O[C@H]2CC[C@H](NC(=O)c3ccc(C4CCN(CC5CCCN(c6ccc(C(=O)NC7CCC(=O)NC7=O)cc6)C5)CC4)cc3)CC2)cc1Cl (stereo partly drawn)
- DC50 [1]: 200 nM
- Activity [2]: Active; Maximum Degradation Level Observed
- Activity [3]: inactive
- Activity [4]: Active; Most Pronounced Degradation Observed
- Activity [5]: Active
- Activity [6]: 869 pg/mL
- fold change (FC) [7]: 0.77
- Ratio [8]: 333.81
- Ratio [9]: 119.61
- Cmax [10]: 708 ng/mL
- AUC(0-t) at 12 h [11]: 992 ng·h/mL
- Drug uptake [12]: Active
- Kp at 1 h [13]: 71.5
- Ratio [14]: 2610.82
- Ratio [15]: 1736.28
- Ratio [16]: 441.98
- Ratio [17]: 196.27
- Ratio [18]: 173.24
- Ratio [19]: 450.95
- Ratio [20]: 635.83
- Ratio [21]: 269.54
- Ratio [22]: 476.62
- Ratio [23]: 800.46
- Ratio [24]: 288.26
- Ratio [25]: 484.4
- Ratio [26]: 101.26
- Activity (Mus musculus [27]): Active
- Activity (Mus musculus [28]): 100%
- Activity (Mus musculus [29]): Active
- Activity (Mus musculus [30]): Active
- Activity (Mus musculus [31]): Active
- Activity [32]: Active
- Activity (Mus musculus [33]): Active
